Source: ChEMBL document CHEMBL4270670 (J Med Chem, 2018)
pEC50: −log10 of the molar value.

How the values were obtained:
Influenza A virus [1] = assay: Antiviral activity against Influenza A virus H5N2 infected in specific pathogen free embryonated egg assessed as survival rate at 0.625 mM preincubated for 1 hr prior to inoculation measured after 72 hrs (reference value: 0%); format: functional
Rattus norvegicus [2] = assay: Clearance in Sprague-Dawley rat at 2 mg/kg, iv by LC-MS analysis; format: ADME, organism-based; details: in vivo
Rattus norvegicus [3] = assay: Bioavailability in Sprague-Dawley rat at 2 mg/kg, iv by LC-MS analysis; format: ADME, organism-based; details: in vivo
in vitro [4] = details: human, liver microsomes
Rattus norvegicus [5] = assay: Half life in Sprague-Dawley rat at 20 mg/kg, po by LC-MS analysis; format: ADME, organism-based; details: in vivo
Rattus norvegicus [6] = assay: Tmax in Sprague-Dawley rat at 2 mg/kg, iv by LC-MS analysis; format: ADME, organism-based; details: in vivo
in vitro [7] = details: human, plasma
in vitro [8] = details: human, liver microsomes; remark: listed apart in the source
Influenza B virus = details: mdck
in vitro [9] = details: human, plasma; remark: listed apart in the source
in vitro [10] = details: dog, MDCK cells
Rattus norvegicus [11] = assay: Tmax in Sprague-Dawley rat at 20 mg/kg, po by LC-MS analysis; format: ADME, organism-based; details: in vivo
Influenza A virus [12] = assay: Antiviral activity against Influenza A virus H5N2 infected in specific pathogen free embryonated egg assessed as survival rate at 0.156 mM preincubated for 1 hr prior to inoculation measured after 72 hrs (reference value: 0%); format: functional
Influenza A virus [13] = assay: Antiviral activity against Influenza A virus H5N2 infected in specific pathogen free embryonated egg assessed as survival rate at 2.5 mM preincubated for 1 hr prior to inoculation measured after 72 hrs (reference value: 0%); format: functional
Mus musculus [14] = assay: Acute toxicity in Kunming mouse at 2000 mg/kg, ig after 1 week; format: organism-based; details: in vivo, po, 168 h
in vitro [15] = details: human, liver microsomes; remark: listed apart in the source
Rattus norvegicus [16] = assay: Half life in Sprague-Dawley rat at 2 mg/kg, iv by LC-MS analysis; format: ADME, organism-based; details: in vivo
Influenza A virus [17] = assay: Antiviral activity against Influenza A virus H5N2 infected in specific pathogen free embryonated egg assessed as survival rate at 0.039 mM preincubated for 1 hr prior to inoculation measured after 72 hrs (reference value: 0%); format: functional
in vitro [18] = details: chicken, chicken embryo fibroblasts
in vitro [19] = details: human, plasma; remark: listed apart in the source
in vitro [20] = details: human, plasma; remark: listed apart in the source
Influenza A virus [21] = assay: Antiviral activity against Influenza A virus H5N2 infected in specific pathogen free embryonated egg assessed as survival rate at 2.5 mM preincubated for 1 hr prior to inoculation measured after 48 hrs (reference value: 0%); format: functional
Rattus norvegicus [22] = species on record: Rattus norvegicus; details: in vivo, po, 20 mg/kg
Rattus norvegicus [23] = species on record: Rattus norvegicus; details: in vivo, iv, 2 mg/kg
Rattus norvegicus [24] = assay: Volume of distribution in Sprague-Dawley rat at 2 mg/kg, iv by LC-MS analysis; format: ADME, organism-based; details: in vivo
Influenza A virus [25] = assay: microbe, parasite or virus in culture; details: MDCK, 48 h
in vivo [26] = details: Sprague-Dawley, rat, iv, 2 mg/kg
Rattus norvegicus [27] = assay: Cmax in Sprague-Dawley rat at 20 mg/kg, po by LC-MS analysis; format: ADME, organism-based; set-up: dose 20 mg/kg, route oral; details: in vivo
in vivo [28] = details: Sprague-Dawley, rat, po, 20 mg/kg
[29] = MRT (0 to infinity) in Sprague-Dawley rat at 2 mg/kg, iv by LC-MS analysis; format: ADME, organism-based; details: in vivo
[30] = Oral bioavailability in Sprague-Dawley rat at 20 mg/kg by LC-MS analysis; format: ADME, organism-based; details: in vivo
Mus musculus [31] = assay: Acute toxicity in Kunming mouse assessed as gross lesions at 2000 mg/kg, ig after 1 week; format: organism-based; details: in vivo, po, 168 h
in vitro [32] = details: human, liver microsomes; remark: listed apart in the source
Influenza A virus [33] = assay: Antiviral activity against Influenza A virus H5N2 infected in specific pathogen free embryonated egg assessed as survival rate at 10 mM preincubated for 1 hr prior to inoculation measured after 48 hrs (reference value: 0%); format: functional
in vitro [34] = details: human, plasma; remark: listed apart in the source
Influenza A virus [35] = assay: Antiviral activity against Influenza A virus H5N2 infected in specific pathogen free embryonated egg assessed as survival rate at 10 mM preincubated for 1 hr prior to inoculation measured after 72 hrs (reference value: 0%); format: functional
[36] = MRT (0 to infinity) in Sprague-Dawley rat at 20 mg/kg, po by LC-MS analysis; format: ADME, organism-based; details: in vivo
Influenza A virus [37] = assay: microbe, parasite or virus in culture; details: A/Puerto Rico/8/1934(H1N1), MDCK, 48 h
Influenza A virus [38] = assay: Antiviral activity against Influenza A virus H5N2 infected in specific pathogen free embryonated egg assessed as survival rate at 0.039 mM preincubated for 1 hr prior to inoculation measured after 48 hrs (reference value: 0%); format: functional
Influenza A virus [39] = assay: Antiviral activity against Influenza A virus H5N2 infected in specific pathogen free embryonated egg assessed as survival rate at 0.625 mM preincubated for 1 hr prior to inoculation measured after 48 hrs (reference value: 0%); format: functional
Influenza A virus [40] = assay: Antiviral activity against Influenza A virus H5N2 infected in specific pathogen free embryonated egg assessed as survival rate at 0.156 mM preincubated for 1 hr prior to inoculation measured after 48 hrs (reference value: 0%); format: functional
[41] = human, microsomes, 20 min

## CCC(CC)O[C@@H]1C=C(C(=O)O)C[C@H](NCc2ccc(Sc3ccccc3)cc2)[C@H]1NC(C)=O
Influenza A virus [1]
  survival at 625 µM: 0%
Rattus norvegicus [2]
  CL: 1.41 mL/h/kg
Rattus norvegicus [3]
  F: 100%
In vitro [4]
  remaining at 1 h, 2 uL: 115%
Rattus norvegicus [5]
  t1/2: 3.82 h
Rattus norvegicus [6]
  Tmax: 4.98 min
In vitro [7]
  remaining at 0.5 h, 2 µM: 100%
In vitro [8]
  microsomal CLint at 20 min, 2 uL: < 9.6 µL/min/mg
Influenza B virus
  pEC50: 4.72
In vitro [9]
  remaining at 10 min, 2 µM: 102%
In vitro [10]
  CC50 at 48 h: > 250 µM
Rattus norvegicus [11]
  Tmax: 0.83 h
Influenza A virus [12]
  survival at 156 µM: 0%
Influenza A virus [13]
  survival at 2500 µM: 20%
Mus musculus [14]
  Activity: Non-Toxic
In vitro [15]
  remaining at 1 h, 2 uL: 101%
Rattus norvegicus [16]
  t1/2: 1.76 h
Influenza A virus [17]
  survival at 39 µM: 0%
In vitro [18]
  CC50 at 48 h: > 200 µM
In vitro [19]
  half-life at 2 µM: > 4.82 h
In vitro [20]
  remaining at 2 h, 2 µM: 91.6%
Influenza A virus [21]
  survival at 2500 µM: 80%
Rattus norvegicus [22]
  AUC: 1558.63 ng·h/mL
Rattus norvegicus [23]
  AUC: 1464.41 ng·h/mL
Rattus norvegicus [24]
  Vd: 3.51 L/kg
Influenza A virus [25]
  pEC50: 4.15
In vivo [26]
  AUC(0-t): 1460 ng·h/mL
Rattus norvegicus [27]
  Cmax: 407 µg/mL
In vivo [28]
  AUC(0-t): 1500 ng·h/mL
[29]
  MRT inf: 2.03 h
[30]
  bioavailability: 10.3%
Mus musculus [31]
  Activity: Non-Toxic
In vitro [32]
  half-life at 2 uL: > 2.42 h
Influenza A virus [33]
  survival at 10000 µM: 100%
In vitro [34]
  remaining at 1 h, 2 µM: 100%
Influenza A virus [35]
  survival at 10000 µM: 60%
[36]
  MRT inf: 4.05 h
Influenza A virus [37]
  pEC50: 7.22
Influenza A virus [38]
  survival at 39 µM: 0%
Influenza A virus [39]
  survival at 625 µM: 60%
Influenza A virus [40]
  survival at 156 µM: 0%

## CCC(CC)O[C@@H]1C=C(C(=O)O)C[C@H](NCc2ccc(-c3ccc(SC)cc3)cc2)[C@H]1NC(C)=O
In vitro [18]
  CC50 at 48 h: > 200 µM

## CCC(CC)O[C@@H]1C=C(C(=O)O)C[C@H](NCc2ccc(C(C)(C)C)cc2)[C@H]1NC(C)=O
In vitro [18]
  CC50 at 48 h: > 200 µM

## CCC(CC)O[C@@H]1C=C(C(=O)O)C[C@H](NCc2ccc(SC3CCCC3)cc2)[C@H]1NC(C)=O
In vitro [18]
  CC50 at 48 h: > 200 µM

## CCC(CC)Oc1cccc(CN[C@H]2CC(C(=O)O)=C[C@@H](OC(CC)CC)[C@@H]2NC(C)=O)c1
In vitro [18]
  CC50 at 48 h: > 200 µM

## CCC(CC)O[C@@H]1C=C(C(=O)O)C[C@H](NCc2ccc(S(=O)(=O)c3ccccc3)cc2)[C@H]1NC(C)=O
In vitro [18]
  CC50 at 48 h: > 200 µM

## CCC(CC)O[C@@H]1C=C(C(=O)O)C[C@H](NCc2ccc(OC)cc2)[C@H]1NC(C)=O
Influenza B virus
  pEC50: < 4.00
In vitro [10]
  CC50 at 48 h: > 250 µM
In vitro [18]
  CC50 at 48 h: > 200 µM
Influenza A virus [25]
  pEC50: < 4.00
Influenza A virus [37]
  pEC50: 5.43

## CCC(CC)O[C@@H]1C=C(C(=O)O)C[C@H](NCc2ccc(SC3CCCCC3)cc2)[C@H]1NC(C)=O
Influenza B virus
  pEC50: < 4.00
In vitro [10]
  CC50 at 48 h: > 250 µM
In vitro [18]
  CC50 at 48 h: > 200 µM
Influenza A virus [25]
  pEC50: < 4.00
Influenza A virus [37]
  pEC50: 4.77

## CCC(CC)O[C@@H]1C=C(C(=O)O)C[C@H](NCc2ccc(-c3csc4ccccc34)cc2)[C@H]1NC(C)=O
In vitro [18]
  CC50 at 48 h: > 200 µM

## CCC(CC)O[C@@H]1C=C(C(=O)O)C[C@H](NCc2ccc(C(C)C)cc2)[C@H]1NC(C)=O
In vitro [18]
  CC50 at 48 h: > 200 µM

## CCC(CC)O[C@@H]1C=C(C(=O)O)C[C@H](NCc2ccc(SCC(C)C)cc2)[C@H]1NC(C)=O
In vitro [18]
  CC50 at 48 h: > 200 µM

## O=C(O)Cc1ccccc1Nc1c(Cl)cccc1Cl [DICLOFENAC]
In vitro [4]
  remaining at 1 h, 2 uL: 103%
In vitro [8]
  microsomal CLint at 20 min, 2 uL: 97.7 µL/min/mg
In vitro [15]
  remaining at 1 h, 2 uL: 5.4%
In vitro [32]
  half-life at 2 uL: 0.237 h
[41]
  CLH: 5.28 mL/h/kg

## CCC(CC)O[C@@H]1C=C(C(=O)O)C[C@H](N)[C@H]1NC(C)=O [OSELTAMIVIR CARBOXYLATE]
Influenza A virus [1]
  survival at 625 µM: 0%
Influenza B virus
  pEC50: 5.54
In vitro [10]
  CC50 at 48 h: > 250 µM
Influenza A virus [12]
  survival at 156 µM: 0%
Influenza A virus [13]
  survival at 2500 µM: 0%
Influenza A virus [17]
  survival at 39 µM: 0%
In vitro [18]
  CC50 at 48 h: > 200 µM
Influenza A virus [21]
  survival at 2500 µM: 20%
Influenza A virus [25]
  pEC50: 5.92
Influenza A virus [33]
  survival at 10000 µM: 60%
Influenza A virus [35]
  survival at 10000 µM: 0%
Influenza A virus [37]
  pEC50: 7.39
Influenza A virus [38]
  survival at 39 µM: 0%
Influenza A virus [39]
  survival at 625 µM: 0%
Influenza A virus [40]
  survival at 156 µM: 0%

## CC(C)[N+](C)(CCOC(=O)C1c2ccccc2Oc2ccccc21)C(C)C.[Br-] [PROPANTHELINE BROMIDE]
In vitro [7]
  remaining at 0.5 h, 2 µM: 19.1%
In vitro [9]
  remaining at 10 min, 2 µM: 54.9%
In vitro [19]
  half-life at 2 µM: 0.18 h
In vitro [34]
  remaining at 1 h, 2 µM: 2.1%

## NC(=O)c1ncn([C@@H]2O[C@H](CO)[C@@H](O)[C@H]2O)n1 [RIBAVIRIN]
In vitro [18]
  CC50 at 48 h: > 200 µM

## CC(=O)N[C@H]1[C@H]([C@H](O)[C@H](O)CO)OC(C(=O)O)=C[C@@H]1NC(=N)N [ZANAMIVIR]
Influenza B virus
  pEC50: 6.05
In vitro [10]
  CC50 at 48 h: > 250 µM
In vitro [18]
  CC50 at 48 h: > 200 µM
Influenza A virus [25]
  pEC50: 6.52
Influenza A virus [37]
  pEC50: 7.42
